Where two headings read alike, the source gives them in different places.
Legend:
[1] = Pharmacokinetic evaluation after intravenous or gavage administration in dogs; format: in vivo, Beagle dogs; conditions: for AUC(0-inf) / AUC(0-t) / Cmax / MRT inf / Tmax / clearance / half-life: beagle, dog, plasma
Protocol: (§1) The LC-MS/MS system comprises Agilent 1200 series vacuum degassing furnace, quaternary pumps, well-plate autosampler, thermostatted column compartment, the API4000Qtrap Triple Quadrupole Mass Spectrometer with an electrospray ionization (ESI) source. Quantitative analysis was carried out using MRM mode. The parameters for MRM transitions are in Table 2.
(§2) Analysis was carried out on waters xbridge C18 (2.1×50 mm, […] column, 0.5 μL of sample), the analytic conditions are mobile phases cosisting of water+2 mM ammonium formate+0.1% formic acid (Phase A) and methanol+2 mM ammonium formate+0.1% formic acid (Phase B). The flow rate was 0.4 mL/min. And the gradient of Mobile phase was in Table 3.
(§3) Each animal species was divided into two groups: one was administered intravenously and the other was administered intragastrically. The compounds disclosed herein were administered in form of a solution containing 5% DMSO+5% Kolliphor HS15+90% Saline. For the group of intravenous administration, the administration dose was 1 mg/kg, and vein blood samples (0.3 ml) were collected at the time points of 0.083, 0.25, 0.5, 1.0, 2.0, 4.0, 6.0, 8.0 and 24 h after drug administration, then plasma solutions were collected by centrifuging each blood sample at 3000 rpm or 4000 rpm for 10 minutes and kept at −20° C. or −70° C. For the group of intragastric administration, the administration dose was 5 mg/kg, and vein blood samples (0.3 mL) were collected at the time points of 0.25, 0.5, 1.0, 2.0, 4.0, 6.0, 8.0 and 24 h after drug administration, then plasma solutions were collected by centrifuging each blood sample at 3000 rpm or 4000 rpm for 10 minutes and kept at −20° C. or −70° C.
(§4) 20 μL of plasma was blended with 120 μl, 50 ng/ml propranolol standard water solution, then the mixture was extracted with 1.0 mL methyl tert-butyl ether (MTBE), 0.7 mL of supernatant was dried by blow with nitrogen and then dissolved again with 220 μL methanol water (methanol/water (v/v)=1/1). LC-MS/MS method was used to detect the concentration of the target compounds, and […] was used to calculate the pharmacokinetic parameters.

[2] = Pharmacokinetic evaluation after intravenous or gavage administration in monkeys; format: in vivo
Protocol: as §1, §2, §3, §4

[3] = Evaluation of blood-brain barrier (BBB) after peritoneal injection in rats; format: in vivo; conditions: SD rats, intraperitoneal 10 mg/kg; for Kp at 15 min / Kp at 60 min / Kp at 120 min: Sprague-Dawley, rat
Protocol: The analysis method was the same as example B.
The experiment was divided into three groups: 15 min group, 1 h group and 2 h group. After overnight fasting for 12 hours, SD rats were administered by intraperitoneal injection with the compound of the invention in the form of 5% DMSO+5% Kolliphor HS15+90% Saline solution at a dose of 10 mg/kg. Blood, cerebrospinal fluid and brain tissue were collected at 15 minutes, 1 hour and 2 hours respectively after administration. Blood samples were centrifuged at 3,000 or 4,000 rpm for 10 minutes. The plasma solution was collected and kept at −20° C. or −70° C. The cerebrospinal fluid was processed using a protein precipitation method. A certain volume of cerebrospinal fluid sample were precisely absorbed and precipitated by adding 5 times acetonitrile solution containing internal standard. The mixture was mixed well by vortexing, and then centrifuged for 2 minutes at 12,000 rpm at 4° C., the supernatant was kept at −80° C. Brain tissue was homogenized with 2 times methanol solution, and centrifuged to get the supernatant, the supernatant were precipitated by adding 5 times acetonitrile solution containing internal standard.
The mixture was mixed well by vortexing, and then centrifuged for 2 minutes at 12,000 rpm at 4° C., the supernatant was kept at −80° C. LC-MS/MS method was used to detect the concentration of target compounds, BBB permeability was calculated and statistical analysis was carried out.

[4] = monkey, plasma, iv, i.v group, 1 mg/kg
[5] = monkey, plasma, po, i.g group, 5 mg/kg
[6] = brain, 15 min, read-out: T/P Ratio Brain (brain tissue)
[7] = brain, 60 min, read-out: T/P Ratio Brain (brain tissue)
[8] = brain, 120 min, read-out: T/P Ratio Brain (brain tissue)
[9] = cerebrospinal fluid, 15 min, read-out: T/P Ratio CSF (cerebrospinal fluid)
[10] = cerebrospinal fluid, 60 min, read-out: T/P Ratio CSF (cerebrospinal fluid)
[11] = cerebrospinal fluid, 120 min, read-out: T/P Ratio CSF (cerebrospinal fluid)

With `NC(=O)[C@@H]1C[C@H](F)CN1Cc1ccc(OCc2cccc(F)c2)cc1` [Example 1, (2S,4S)-4-fluoro-1-(4-(3-fluorobenzyloxy)benzyl)pyrrolidine-2-formamide] the AUC(0-inf) ([1]; iv, i.v group, 1 mg/kg) was 1500 ng·h/mL, the AUC(0-t) ([1]; iv, i.v group, 1 mg/kg) was 1480 ng·h/mL and the Cmax ([1]; iv, i.v group, 1 mg/kg) was 1230 ng/mL. It also gave an MRT inf ([1]; iv, i.v group, 1 mg/kg) of 2.77 h, a Tmax ([1]; iv, i.v group, 1 mg/kg) of 0.083 h and a clearance ([1]; iv, i.v group, 1 mg/kg) of 11.1 mL/min/kg. For the same molecule, the half-life ([1]; iv, i.v group, 1 mg/kg) was 5.05 h, the AUC(0-inf) ([1]; po, i.g group, 5 mg/kg) was 4990 ng·h/mL and the AUC(0-t) ([1]; po, i.g group, 5 mg/kg) was 4930 ng·h/mL. It also gave a Cmax ([1]; po, i.g group, 5 mg/kg) of 1730 ng/mL, an MRT inf ([1]; po, i.g group, 5 mg/kg) of 2.98 h and a Tmax ([1]; po, i.g group, 5 mg/kg) of 0.833 h. For the same molecule, the half-life ([1]; po, i.g group, 5 mg/kg) was 3.27 h, the F ([1]; i.g group, 5 mg/kg) was 66.5% and the AUClast ([2]; i.g group, 5 mg/kg) was 11300 ng·h/mL. For the same molecule, the Cmax ([2]; i.g group, 5 mg/kg) was 2280 ng/mL, the F ([2]; i.g group, 5 mg/kg) was 107.1% and the T1/2 ([2]; i.g group, 5 mg/kg) was 2.8 h. It also gave an AUClast ([2]; i.v group, 1 mg/kg) of 2120 ng·h/mL, a Cl ([2]; i.v group, 1 mg/kg) of 7.54 mL/min/kg and a Cmax ([2]; i.v group, 1 mg/kg) of 924 ng/mL. It also gave a T1/2 ([2]; i.v group, 1 mg/kg) of 1.77 h, an AUC(0-inf) [2, 4] of 2210 ng·h/mL and an MRT inf [2, 4] of 2.35 h. For the same molecule, the Tmax [2, 4] was 0.083 h, the AUC(0-inf) [2, 5] was 11400 ng·h/mL and the MRT inf [2, 5] was 4.33 h. For the same molecule, the Tmax [2, 5] was 1 h, the “Conc. Brain (brain tissue)” value ([3]; 15 min) was 10243.33 ng/g or ng/ml and the “Conc. CSF (cerebrospinal fluid)” value ([3]; 15 min) was 147.67 ng/g or ng/ml. For the same molecule, the “Conc. Plasm (plasma)” value ([3]; 15 min) was 5203.33 ng/g or ng/ml, the “Conc. Brain (brain tissue)” value ([3]; 60 min) was 9273.33 ng/g or ng/ml and the “Conc. CSF (cerebrospinal fluid)” value ([3]; 60 min) was 61.9 ng/g or ng/ml. The “Conc. Plasm (plasma)” value ([3]; 60 min) was 2073.33 ng/g or ng/ml, the “Conc. Brain (brain tissue)” value ([3]; 120 min) was 2890 ng/g or ng/ml and the “Conc. CSF (cerebrospinal fluid)” value ([3]; 120 min) was 34.4 ng/g or ng/ml. For the same molecule, the “Conc. Plasm (plasma)” value ([3]; 120 min) was 864.33 ng/g or ng/ml, the Kp at 15 min [3, 6] was 1.97 and the Kp at 60 min [3, 7] was 4.47. It also gave a Kp at 120 min [3, 8] of 3.34, a Kp at 15 min [3, 9] of 0.028 and a Kp at 60 min [3, 10] of 0.03. It also gave a Kp at 120 min [3, 11] of 0.04.
For `NC(=O)[C@@H]1C[C@H](F)CN1Cc1ccc(OCc2cccc(F)c2)cc1F` [Example 3, (2S,4S)-4-fluoro-1-(2-fluoro-4-(3-fluorobenzyloxy)benzyl)pyrrolidine-2-formamide], the AUC(0-inf) ([1]; iv, i.v group, 1 mg/kg) was 979 ng·h/mL, the AUC(0-t) ([1]; iv, i.v group, 1 mg/kg) was 977 ng·h/mL and the Cmax ([1]; iv, i.v group, 1 mg/kg) was 1490 ng/mL. For the same molecule, the MRT inf ([1]; iv, i.v group, 1 mg/kg) was 0.871 h, the Tmax ([1]; iv, i.v group, 1 mg/kg) was 0.083 h and the clearance ([1]; iv, i.v group, 1 mg/kg) was 17 mL/min/kg. It also gave a half-life ([1]; iv, i.v group, 1 mg/kg) of 1.13 h, an AUC(0-inf) ([1]; po, i.g group, 5 mg/kg) of 2450 ng·h/mL and an AUC(0-t) ([1]; po, i.g group, 5 mg/kg) of 2440 ng·h/mL. It also gave a Cmax ([1]; po, i.g group, 5 mg/kg) of 1380 ng/mL, an MRT inf ([1]; po, i.g group, 5 mg/kg) of 1.44 h and a Tmax ([1]; po, i.g group, 5 mg/kg) of 0.5 h. The half-life ([1]; po, i.g group, 5 mg/kg) was 1.09 h, the F ([1]; i.g group, 5 mg/kg) was 50.1% and the F ([2]; i.g group, 5 mg/kg) was 69.1%. It also gave an AUC(0-inf) [2, 4] of 3260 ng·h/mL, an AUC(0-t) [2, 4] of 3240 ng·h/mL and an MRT inf [2, 4] of 3.41 h. For the same molecule, the Tmax [2, 4] was 0.083 h, the clearance [2, 4] was 5.12 mL/min/kg and the half-life [2, 4] was 2.24 h. For the same molecule, the Cmax ([2]; monkey, plasma, iv, i.v group, 1 mg/kg, read-out: Cmax) was 1610 ng/mL, the AUC(0-inf) [2, 5] was 11200 ng·h/mL and the AUC(0-t) [2, 5] was 11200 ng·h/mL. It also gave an MRT inf [2, 5] of 5.02 h, a Tmax [2, 5] of 1 h and a half-life [2, 5] of 3.39 h. The Cmax ([2]; monkey, plasma, po, i.g group, 5 mg/kg, read-out: Cmax) was 2010 ng/mL, the “Conc. Brain (brain tissue)” value ([3]; 15 min) was 8610 ng/g or ng/ml and the “Conc. CSF (cerebrospinal fluid)” value ([3]; 15 min) was 56.67 ng/g or ng/ml. The “Conc. Plasm (plasma)” value ([3]; 15 min) was 3496.67 ng/g or ng/ml, the “Conc. Brain (brain tissue)” value ([3]; 60 min) was 5253.33 ng/g or ng/ml and the “Conc. CSF (cerebrospinal fluid)” value ([3]; 60 min) was 39.77 ng/g or ng/ml. The “Conc. Plasm (plasma)” value ([3]; 60 min) was 1930 ng/g or ng/ml, the “Conc. Brain (brain tissue)” value ([3]; 120 min) was 1576.67 ng/g or ng/ml and the “Conc. CSF (cerebrospinal fluid)” value ([3]; 120 min) was 13.05 ng/g or ng/ml. The “Conc. Plasm (plasma)” value ([3]; 120 min) was 686.67 ng/g or ng/ml, the Kp at 15 min [3, 6] was 2.46 and the Kp at 60 min [3, 7] was 2.72. It also gave a Kp at 120 min [3, 8] of 2.3, a Kp at 15 min [3, 9] of 0.016 and a Kp at 60 min [3, 10] of 0.021. The Kp at 120 min [3, 11] was 0.019.

From patent US11225460B2, “Pyrrolidineamide derivatives and uses thereof” (SUNSHINE LAKE PHARMA CO., LTD., priority 2019, dated 2022)
